The nature of series [1]: Plasma protein binding (RED dialysis), dog. The following applies: male, beagle, pH 7.4. The class given is in vitro ADME. An excerpt:
(§1) Verapamil hydrochloride and tamoxifen were obtained from Sigma-Aldrich. […]
(§2) Pooled mixed gender human donor plasma, Sprague Dawley male rat plasma, CD-1 (ICR) male mouse plasma and male beagle dog plasma were obtained from Bioreclamation Inc. (Westbury, NY). Reusable Teflon base plate, RED Device inserts, and BupH Phosphate Buffered Saline packs (0.1 M sodium phosphate and 0.15 M sodium chloride when dissolved in 0.5 L water) were obtained from Thermo Scientific (Waltham, MA). Propranolol was obtained from Sigma-Aldrich (St. Louis, MO). All solvents were obtained from commercial sources and used without further purification.
(§3) Frozen plasma was thawed and the pH of plasma and BupH phosphate buffered saline was adjusted to 7.4 prior to dialysis. Into each well of a reusable Teflon 48-well base plate a RED insert was placed open end up. Ten microliters (10 µL) of the test compound (0.1 mM in acetonitrile/water, 1:1 v/v) was added to 990 µL of plasma to achieve 1 µM final concentration. The spiked plasma (200 µL) was added to the sample chamber, which is indicated by the red retainer ring (donor side). To the other side (receiver side), 350 µL of BupH phosphate buffered saline (pH 7.4) was added. A buffer-to-buffer assay was also performed to measure equilibrium across the membrane in the absence of plasma protein.
(§4) Propranolol was used as a positive control. All samples were prepared in triplicate. The RED device base plate was then sealed and placed in a shaking incubator set to maintain 37°C and 200 rpm for four hours.
(§5) After incubation, 100 µL of each sample was combined with an equal volume of either plasma or buffer, to create a similar matrix for all samples. Blank buffer was added to plasma samples, and vice versa. Samples from the incubation, along with the original compound-spiked plasma samples, were prepared for analysis in the same manner. Protein precipitation by addition of two parts of ice-cold acetonitrile to one part of reaction volume was carried out. To ensure complete protein precipitation samples were sealed and placed overnight at 4°C. The next morning samples were centrifuged at 3,600 rpm for 15 minutes. The supernatants (70 µL) were supplemented with an equal volume of internal standard solution (0.15 µM verapamil in water) and subjected to LC-MS/MS analysis.

Series [2] in a line: Metabolic clearance in hepatocytes, mouse. The class given is in vitro ADME. The following applies: male, ICR/CD-1, cryopreserved mouse hepatocytes, read-out: Hepatocyte Clearance (t1/2 min) Mouse. Here is the method:
(§6) Metabolic Clearance in Hepatocytes
(§7) Testosterone was obtained from Cerilliant (Round Rock, TX). 7-Hydroxycoumarin was obtained from Sigma-Aldrich (St.
(§8) Louis, MO). Ten-donor male pooled cryopreserved human hepatocytes, cryopreserved male Sprague Dawley rat hepatocytes, cryopreserved male ICR/CD-1 mouse hepatocytes, cryopreserved male beagle dog hepatocytes, In VitroGro HI Medium (Incubation), and InVitroGro HT Medium (Thawing) were obtained from Bioreclamation IVT (Baltimore, MD). All solvents were obtained from commercial sources and used without further purification.Test compound was prepared as a 1 mM stock solution in DMSO. A 2 µM solution of test compound and testosterone was prepared (7 - hydroxycoumarin was prepared at 20 µM) in In VitroGro HI Medium (Incubation). These solutions were placed in a sterile incubator set to maintain 37°C, 5% CO2, and 98% humidity to pre-warm. Cryopreserved hepatocytes were prepared at a concentration of 2 x 10^6 living cells/mL in incubation media and placed in the incubator to pre-warn. The compound solutions and hepatocyte mixtures were then combined at a ratio of 1:1 (v:v). The final volume of the reaction mixture was 750 µL, containing 1 µM test compound and 1 x 10^6 cells/mL. The reaction mixture was placed in the incubator on a plate shaker. After 0, 15, 30, 60, 90, and 120 minutes of incubation, 100 µL of reaction mixtures were removed from the incubation plate and mixed with 150 µL of ice-cold acetonitrile in a designated well of a 96-well crash plate. The 96-well crash plate was placed on ice for 15 min, and samples were centrifuged (3,600 rpm, 10 min, 4 °C) to precipitate protein.
(§9) The supernatants were diluted 1:1 (v/v) with water containing tolbutamide, (internal standard for positive and negative modes, respectively) in a 96-well shallow injection plate. This plate was sealed for LC-MS analysis. All measurements

Series [3] in a line: Metabolic clearance in hepatocytes, human. The class given is in vitro ADME. The conditions noted are these: male, pooled cryopreserved human hepatocytes (ten donors), read-out: Hepatocyte Clearance (t1/2 min) Human. As for the experimental part: as §6, §7, §8, §9
The nature of series [4]: Plasma protein binding (RED dialysis), mouse. The following applies: male, CD-1 (ICR), pH 7.4. The class given is in vitro ADME.
Text: as §1, §2, §3, §4, §5

Series [5] can be described thus: Kinetic aqueous solubility in PBS pH 7.4. The format is physicochemical. The following applies: phosphate buffered saline (PBS), 25 °C, aqueous buffer, kinetic from dmso stock. As for the experimental part: These promising compounds were evaluated in in vitro ADME assays (aqueous solubility, Caco-2 permeability, plasma protein binding, and hepatocyte stability) to determine their drug-like properties (Table 4).
Verapamil hydrochloride and tamoxifen were obtained from Sigma-Aldrich. All solvents were obtained from commercial sources and used without further purification. Hydrophilic PVDF 96-well filter plates ([…]), 2 mL 96-well assay block, and 96-well UV plates were purchased from Fisher Scientific.Test compound was prepared as a 10 mM stock solution in DMSO. Aqueous suspensions of test compound at 100 µM were prepared in assay buffers. The composition of phosphate buffered saline (PBS) is 0.1 M sodium phosphate, and 0.15 M sodium chloride, adjusted to pH 7.4. The suspensions were agitated at 200 rpm for 1 hour at 25 °C. The suspensions were transferred to a 0.45 µm hydrophilic PVDF 96-well filter plate mounted on a fresh 2 mL 96-well plate and were filtered by centrifugation at 3,000 rpm for 1 min. 150 µL of filtrates were transferred to 96-well UV plate for absorbance measurement. In order to determine the optimal wavelength for detection (λmax), the absorbance spectrum of the DMSO stock solution for each compound was recorded over a broad range of wavelengths (260–450 nm) using a UV/VIS plate reader (Molecular Devices Spectramax i3). To prepare calibration curves, a 1:1 serial dilution was performed on each compound starting at 100 µM to generate calibration solutions with concentrations ranging from […] to 100 µM. The UV absorbance of calibrants was measured at λmax for each compound. Concentration of each compound in the assay solution was calculated using the corresponding calibration curve. All assay measurements were performed in duplicate. […]

The nature of series [6]: Metabolic clearance in hepatocytes, dog. The class given is in vitro ADME. The conditions noted are these: male, beagle, cryopreserved dog hepatocytes, read-out: Hepatocyte Clearance (t1/2 min) Dog. As for the experimental part: as §6, §7, §8, §9
Series [7] is described as follows: Plasma protein binding (RED dialysis), rat. The class given is in vitro ADME. The following applies: male, Sprague Dawley, pH 7.4.
Text: as §1, §2, §3, §4, §5

The text below walks through data of publication PMC9611727, “Optimization of a Novel Mandelamide-Derived Pyrrolopyrimidine Series of PERK Inhibitors” (Pharmaceutics, 2022).

By fraction unbound is commonly meant the share of the substance not bound to proteins or other matrix. The low end stands for extensive binding, the high end for weak binding. In general, kinetic solubility refers to solubility judged after dilution from a stock solution rather than from solid.

Converted amounts (≈) assume the structure as drawn.

For `Cc1nc(N)c2c(-c3ccc(NC(=O)[C@H](O)c4cccc(F)c4)cc3C)cn(C)c2n1` [Compound 24], the fraction unbound at 4 h, 1 µM is 0.03 in series [1], 0.006 in series [4] and 0.009 in series [7]. Also, the half-life at 1 µM in series [2] was 0.517 h; in series [3] it was 12.2 h; in series [6], over 16.7 h. The kinetic solubility at 1 h in series [5] was 76 µM (≈ 31.9 µg/mL).
Consider `Cc1nc(N)c2c(-c3ccc(NC(=O)[C@H](O)c4cccc(C(F)(F)F)c4)cc3C)cn(C)c2n1` [Compound 26], for which the free fraction (fraction unbound) at 4 h, 1 µM was 0.005 in series [1], 0.001 in series [4] and 0.002 in series [7]. Moreover, the results for the half-life at 1 µM in series [2], in series [3] and in series [6] were 1.97 h, 3.23 h and 2.17 h, respectively. Also, the kinetic solubility at 1 h in series [5] was found to be 19 µM (≈ 8.92 µg/mL).
On to `Cc1nc(N)c2c(-c3ccc(NC(=O)[C@H](O)c4cccc(Cl)c4)cc3C)cn(C)c2n1` [Compound 28], for which the free fraction (fraction unbound) at 4 h, 1 µM in series [1] is 0.017; in series [4] it was under 0.001; in series [7], 0.003. Also, the half-life at 1 µM in series [2] was determined as 1.03 h; in series [3], 13 h; in series [6], 5.92 h. In series [5], this molecule had a solubility (kinetic) at 1 h of 35 µM (≈ 15.3 µg/mL).
Consider `Cc1nc(N)c2c(-c3ccc(NC(=O)[C@H](O)c4cc(F)cc(F)c4)cc3C)cn(C)c2n1` [Compound 38], for which the free fraction (fraction unbound) at 4 h, 1 µM is 0.016 in series [1], 0.008 in series [4] and 0.009 in series [7]. The results for the half-life at 1 µM in series [2], in series [3] and in series [6] were 13.4 h, 14.9 h and 7.67 h, respectively. Also, the solubility (kinetic) at 1 h in series [5] amounted to 19 µM (≈ 8.31 µg/mL).
Regarding `Cc1nc(N)c2c(-c3ccc(NC(=O)[C@H](O)c4cc(F)cc(C(F)(F)F)c4)cc3C)cn(C)c2n1` [Compound 39], the results for the unbound share (fraction unbound) at 4 h, 1 µM in series [1], in series [4] and in series [7] were under 0.001, under 0.001 and 0.001, respectively. In addition, the half-life at 1 µM in series [2] came to 5.33 h; in series [3], 4.62 h; in series [6], 3.72 h. The solubility (kinetic) at 1 h in series [5] came to 10 µM (≈ 4.87 µg/mL).
`Cc1cc(F)cc([C@@H](O)C(=O)Nc2ccc(-c3cn(C)c4nc(C)nc(N)c34)c(C)c2)c1` [Compound 41]: the fraction unbound at 4 h, 1 µM in series [1] was 0.012; in series [4] it was 0.001; in series [7] it was 0.005. Moreover, the half-life at 1 µM in series [2] stood at 0.4 h; in series [3] it was 1.13 h; in series [6], 3.87 h. The molecule further registered a solubility (kinetic) at 1 h in series [5] of 24 µM (≈ 10.4 µg/mL).
As to `Cc1nc(N)c2c(-c3ccc(NC(=O)[C@H](O)c4cccc(Cl)c4)cc3F)cn(C)c2n1` [Compound 48], the unbound share (fraction unbound) at 4 h, 1 µM in series [1] is 0.004; in series [4] it was 0.002; in series [7], 0.004. The half-life at 1 µM is 0.883 h in series [2], 9.27 h in series [3] and 3.58 h in series [6]. The kinetic solubility at 1 h in series [5] was determined as 14 µM (≈ 6.16 µg/mL).
In the case of `Cc1nc(N)c2c(-c3ccc(NC(=O)[C@H](O)c4cccc(F)c4)c(F)c3C)cn(C)c2n1` [Compound 65], the fraction unbound at 4 h, 1 µM is 0.013 in series [1], 0.007 in series [4] and 0.011 in series [7]. The values for the half-life at 1 µM in series [2], in series [3] and in series [6] were 1.07 h, 6.5 h and 9.45 h, respectively. The molecule further came in with a solubility (kinetic) at 1 h in series [5] of 58 µM (≈ 25.4 µg/mL).
`Cc1nc(N)c2c(-c3cc(F)c(NC(=O)[C@H](O)c4cccc(F)c4)cc3C)cn(C)c2n1` [Compound 66]: the unbound share (fraction unbound) at 4 h, 1 µM was 0.018 in series [1], 0.012 in series [4] and 0.014 in series [7]. Moreover, the half-life at 1 µM in series [2] was 2.78 h; in series [3], 5.97 h; in series [6] it was 0.65 h. The molecule further registered a solubility (kinetic) at 1 h in series [5] of 61 µM (≈ 26.7 µg/mL).
For `Cc1nc(N)c2c(-c3ccc(NC(=O)[C@H](O)c4cccc(F)c4)c(F)c3F)cn(C)c2n1` [Compound 70, (R)-N-(4-(4-amino-2,7-dimethyl-7H-pyrrolo[2,3-d]pyrimidin-5-yl)-2,3-difluorophenyl)-2-(3-fluorophenyl)-2-hydroxyacetamide], the fraction unbound at 4 h, 1 µM was 0.006 in series [1], 0.003 in series [4] and 0.007 in series [7]. Further, the half-life at 1 µM in series [2] worked out at 0.75 h; in series [3], 6 h; in series [6] it was 4.47 h. In series [5], this molecule had a kinetic solubility at 1 h of 66 µM (≈ 29.1 µg/mL).
